Test results reported in patent US20150321985A1, “(HYDROXYSTILBENE COMPOUND)-(SINAPINIC ACID) REACTION PRODUCT HAVING ANTIFEEDING ACTIVITY” (UHA MIKAKUTO CO., LTD., priority 2012, published 2015).

Key:
[1] = test system: agouti-related peptide (AgRP); details: reporter assay in cultured cells; cited from earlier work
NPY = details: reporter assay in cultured cells; cited from earlier work
female mice C57BL/6j = experiment: Examination of antifeeding activity: test diets freely fed to mice for 42 days; type: in vivo; details: for Total diet intake during test period: C57BL/6j mice
Protocol: To examine the antifeeding activity of UHA1028, 8-week-old female mice C57BL/6j (manufactured by CLEA Japan, Inc.) were used. […] The mice were freely fed for 42 days. During the feeding period of test diets, the diet intake and the weight were measured twice a week.
A required amount of the UHA1028 was obtained by repeating the formation and isolation described in Example 1.
In Table 2, the amount of each component is represented as g per kg of diet.
The test diets fed to the control groups are, a normal diet, a high-fat diet, and a high-fat diet containing resveratrol but containing no test substance respectively.

[2] = 0.4% test substance in high-fat diet, 42 days

Row | Structure (SMILES) | expression of AgRP [1] | expression of NPY (NPY) | Total diet intake during test period (female mice C57BL/6j; [2]) | antifeeding activity on long-term administration (female mice C57BL/6j; administered for a long period of time, as in the examples) | change in diet intake (FIG. 2) (female mice C57BL/6j; 0.05% UHA1028-containing high-fat diet versus 0.4% resveratrol intake group) | Total diet intake during test period (female mice C57BL/6j; 0.05% test substance in high-fat diet, 42 days) | Total diet intake during test period (female mice C57BL/6j; 0.1% test substance in high-fat diet, 42 days) | Total diet intake during test period (female mice C57BL/6j; 0.2% test substance in high-fat diet, 42 days) | weight increase (FIG. 3) (female mice C57BL/6j; 0.4% UHA1028 in high-fat diet versus 0.4% resveratrol intake group) | diet intake versus the other groups (female mice C57BL/6j; UHA1028 intake groups 0.05-0.4% in high-fat diet, Table 3) | anatomy of the mice at the end of the test (organs) (female mice C57BL/6j; four UHA1028 intake groups (0.05-0.4%), 42 days)
1 | Oc1ccc(C=Cc2cc(O)cc(O)c2)cc1 [Resveratrol, resveratrol, reference compound] | suppressed the expression of AgRP and NPY | suppressed the expression of AgRP and NPY | 106.7 g | very low antifeeding activity |  |  |  |  |  |  | 
2 | COc1cc(C(C)c2c(O)cc(/C=C/c3ccc(O)cc3)cc2O)cc(OC)c1O (stereo not drawn) [UHA1028] |  |  | 97.5 g |  | significantly reduced as compared with the resveratrol intake group | 88.4 g | 87.1 g | 99.9 g | significantly suppressed as compared with the resveratrol intake group | significantly lower than those of the other groups | no contraction or hypertrophy of organs was observed
